Results on 2 compounds are retold here after US7476689B2, “Therapeutic compositions for intranasal administration which include KETOROLAC” (Recordati Ireland Limited, priority 1991, dated 2009).

One series has as its system patients. The following applies: cited from earlier work.
A short description of series [1]: nasal absorption: KTM plasma levels by HPLC after intranasal or intravenous administration. It counts as in vivo, White New Zealand rabbits. The settings on record: rabbit. Here is the method: Each rabbit received a active preparation in one nostril and its placebo in the other. Each animal received 2 mg/kg of KETOROLAC® tromethamine (KTM), twice a day for seven days and once on the eighth day. The control rabbits were treated, after seven days of nasal administration of physiologic solution, with 2 mg/kg of KTM by intravenous route once. After the last treatment plasma samples were collected at several times and KTM plasma levels were investigated by HPLC. After the last blood sample was drawn all the animals were killed by excision of femoral arteries, after having been completely anaesthetized. Nasal turbinates, larynx and pharynx were removed and subjected to histological examinations.

In the case of `O=C(c1ccccc1)c1ccc2n1CCC2C(=O)O` (stereo not drawn) [KETOROLAC®, 5-benzoyl-2,3-dihydro-1H-pyrrolizine-1-carboxylic acid], the “patients with one or more undesirable side effects” value in the series on patients (intramuscular route, 20 doses of 30 mg each over five days) is reported as “about 10%”. Moreover, in the series with patients (oral administration), the “patients with gastrointestinal disorders” value is “up to 50%”. In the series on patients (oral route for a few days), the “incidence of side effects” value is given as “around 32%”.

For `O=C(c1ccccc1)c1ccc2n1CCC2C(=O)O` (stereo not drawn) [KTM, KETOROLAC® tromethamine], the concentration at 0.083 h in series [1] (New Zealand White, plasma, intravenous 2 mg/kg once, 0.083 hours) amounted to 14500 ng/mL. The compound further showed a concentration at 0.25 h in series [1] (New Zealand White, plasma, intravenous 2 mg/kg once, 0.25 hours) of 7680 ng/mL. Also, the concentration at 0.5 h in series [1] (New Zealand White, plasma, intravenous 2 mg/kg once, 0.5 hours) turned out to be 3880 ng/mL. In series [1] (New Zealand White, plasma, intravenous 2 mg/kg once, 1 hour), this compound came in with a concentration at 1 h of 1700 ng/mL. This compound also showed a concentration at 2 h in series [1] (New Zealand White, plasma, intravenous 2 mg/kg once, 2 hours) of 403 ng/mL. The compound also returned a concentration at 3 h in series [1] (New Zealand White, plasma, intravenous 2 mg/kg once, 3 hours) of 120 ng/mL. For the same compound, in series [1] (New Zealand White, plasma, intravenous 2 mg/kg once, 5 hours), the concentration at 5 h is 20 ng/mL. Moreover, the AUC(0-t) in series [1] (New Zealand White, plasma, intravenous 2 mg/kg, mean of three animals, read-out: AUC0-5, average) stood at 7360 ng·h/mL. Also, the “Plasma Concentration of KTM, Mean” value in series [1] (intravenous 2 mg/kg once, sampling time Basal) was found to be 0 ng/mL.
